Seven molecules from ChEMBL document CHEMBL1909046, “DrugMatrix in vitro pharmacology data” can be followed below.

Sequence of Cytochrome P450 2C19 (P33261 whole entry): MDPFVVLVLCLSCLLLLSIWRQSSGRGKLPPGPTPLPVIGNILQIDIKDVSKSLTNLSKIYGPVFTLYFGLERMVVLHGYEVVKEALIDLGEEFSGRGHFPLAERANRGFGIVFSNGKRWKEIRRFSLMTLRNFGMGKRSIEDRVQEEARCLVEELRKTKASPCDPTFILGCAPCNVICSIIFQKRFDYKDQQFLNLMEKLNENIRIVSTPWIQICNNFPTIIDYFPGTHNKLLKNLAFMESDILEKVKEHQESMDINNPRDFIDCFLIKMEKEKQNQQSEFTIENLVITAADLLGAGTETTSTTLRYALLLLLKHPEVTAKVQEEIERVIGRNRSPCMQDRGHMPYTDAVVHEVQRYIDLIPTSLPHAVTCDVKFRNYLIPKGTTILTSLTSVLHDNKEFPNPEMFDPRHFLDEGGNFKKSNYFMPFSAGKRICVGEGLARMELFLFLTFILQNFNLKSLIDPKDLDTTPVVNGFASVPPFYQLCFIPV

Tested on in the first data set: not listed separately
Nature of the data set: DRUGMATRIX: Calcium Channel Type L, Dihydropyridine radioligand binding (ligand: [3H] Nitrendipine). The class given is cell membranes, Rattus norvegicus, Wistar, Cerebral cortex, Membrane. The following applies: Not Active = under 50% inhibition at 10 µM.
Regarding `N=C(N)N/N=C/c1c(Cl)cccc1Cl` [GUANABENZ], the IC50 result was “Not Active” and the Ki result was “Not Active”.

In the case of `NC[C@H]1O[C@H](O[C@H]2[C@H](O)[C@@H](O[C@H]3O[C@H](CO)[C@@H](O)[C@H](N)[C@H]3O)[C@H](N)C[C@@H]2N)[C@H](O)[C@@H](O)[C@@H]1O` [KANAMYCIN], the IC50 entry was “Not Active” and the Ki entry is “Not Active”.

Turning to `CC(C(=O)O)c1ccc(CC2CCCC2=O)cc1` (stereo not given) [LOXOPROFEN], the IC50 result is reported as “Not Active” and the Ki result is “Not Active”.

Turning to `CC(=O)O[C@]1(C(C)=O)CC[C@H]2[C@@H]3C=C(C)C4=CC(=O)CC[C@]4(C)[C@H]3CC[C@@]21C` [MEGESTROL ACETATE], the IC50 entry was “Not Active” and the Ki result is reported as “Not Active”.

On to `COc1ccccc1OCC(O)COC(N)=O` (stereo not given) [METHOCARBAMOL], for which the IC50 result is given as “Not Active” and the Ki entry was “Not Active”.

Consider `CN(Cc1cnc2nc(N)nc(N)c2n1)c1ccc(C(=O)N[C@@H](CCC(=O)O)C(=O)O)cc1` [METHOTREXATE], for which the IC50 result is “Not Active” and the Ki entry is recorded as “Not Active”.

For `COC(=O)c1ccccc1O` [METHYL SALICYLATE], the IC50 result was “Not Active” and the Ki entry was “Not Active”.

Tested on in the next data set: not listed separately
In words: DRUGMATRIX: Serotonin (5-Hydroxytryptamine) 5-HT3 radioligand binding (ligand: [3H] GR-65630). The format is cell membranes, Membrane. The following applies: hek293; Not Active = under 50% inhibition at 10 µM.
On to `N=C(N)N/N=C/c1c(Cl)cccc1Cl` [GUANABENZ], for which the IC50 entry is on record as “Not Active” and the Ki result was “Not Active”.

Consider `NC[C@H]1O[C@H](O[C@H]2[C@H](O)[C@@H](O[C@H]3O[C@H](CO)[C@@H](O)[C@H](N)[C@H]3O)[C@H](N)C[C@@H]2N)[C@H](O)[C@@H](O)[C@@H]1O` [KANAMYCIN], for which the IC50 result is given as “Not Active” and the Ki result is “Not Active”.

With `CC(C(=O)O)c1ccc(CC2CCCC2=O)cc1` (stereo not given) [LOXOPROFEN], the IC50 result is “Not Active” and the Ki result is on record as “Not Active”.

As to `CC(=O)O[C@]1(C(C)=O)CC[C@H]2[C@@H]3C=C(C)C4=CC(=O)CC[C@]4(C)[C@H]3CC[C@@]21C` [MEGESTROL ACETATE], the IC50 entry is given as “Not Active” and the Ki entry is “Not Active”.

Take `COc1ccccc1OCC(O)COC(N)=O` (stereo not given) [METHOCARBAMOL]: the IC50 result is “Not Active” and the Ki result is on record as “Not Active”.

Turning to `CN(Cc1cnc2nc(N)nc(N)c2n1)c1ccc(C(=O)N[C@@H](CCC(=O)O)C(=O)O)cc1` [METHOTREXATE], the IC50 entry is reported as “Not Active” and the Ki entry is “Not Active”.

`COC(=O)c1ccccc1O` [METHYL SALICYLATE]: the IC50 entry was “Not Active” and the Ki entry is on record as “Not Active”.

Another data set concerns the target T1, Substance-K receptor (Homo sapiens, UniProt P21452). Note: in other assays of this panel Not Active means under 50% inhibition at 10 µM.
T1 sequence (P21452 whole entry): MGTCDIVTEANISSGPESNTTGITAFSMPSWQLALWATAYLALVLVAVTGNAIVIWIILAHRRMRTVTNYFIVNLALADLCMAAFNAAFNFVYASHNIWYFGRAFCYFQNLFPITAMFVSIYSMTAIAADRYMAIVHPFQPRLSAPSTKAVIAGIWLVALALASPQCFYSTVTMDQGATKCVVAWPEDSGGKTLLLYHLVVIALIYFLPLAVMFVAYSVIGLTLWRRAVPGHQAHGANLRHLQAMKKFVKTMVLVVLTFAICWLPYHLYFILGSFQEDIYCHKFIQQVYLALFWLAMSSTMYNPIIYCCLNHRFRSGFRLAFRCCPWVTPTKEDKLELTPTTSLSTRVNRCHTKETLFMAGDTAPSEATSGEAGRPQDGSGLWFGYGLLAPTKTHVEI
The class given is cell membranes, CHO, Membrane. The settings on record: cho.
For the molecule `N=C(N)N/N=C/c1c(Cl)cccc1Cl` [GUANABENZ], the IC50 result is recorded as “Not Active”.

In the case of `NC[C@H]1O[C@H](O[C@H]2[C@H](O)[C@@H](O[C@H]3O[C@H](CO)[C@@H](O)[C@H](N)[C@H]3O)[C@H](N)C[C@@H]2N)[C@H](O)[C@@H](O)[C@@H]1O` [KANAMYCIN], the IC50 entry was “Not Active”.

For `CC(C(=O)O)c1ccc(CC2CCCC2=O)cc1` (stereo not given) [LOXOPROFEN], the IC50 result was “Not Active”.

Turning to `CC(=O)O[C@]1(C(C)=O)CC[C@H]2[C@@H]3C=C(C)C4=CC(=O)CC[C@]4(C)[C@H]3CC[C@@]21C` [MEGESTROL ACETATE], the IC50 entry is listed as “Not Active”.

Regarding `COc1ccccc1OCC(O)COC(N)=O` (stereo not given) [METHOCARBAMOL], the IC50 result is recorded as “Not Active”.

On to `CN(Cc1cnc2nc(N)nc(N)c2n1)c1ccc(C(=O)N[C@@H](CCC(=O)O)C(=O)O)cc1` [METHOTREXATE], for which the IC50 entry is reported as “Not Active”.

Take `COC(=O)c1ccccc1O` [METHYL SALICYLATE]: the IC50 result is listed as “Not Active”.

In another data set the target is Nitric oxide synthase 1 (Rattus norvegicus, UniProt P29476). The class given is tissue-based, Cerebellum. Note: in other assays of this panel Not Active means under 50% inhibition at 10 µM.
Sequence of Nitric oxide synthase 1 (P29476 whole entry): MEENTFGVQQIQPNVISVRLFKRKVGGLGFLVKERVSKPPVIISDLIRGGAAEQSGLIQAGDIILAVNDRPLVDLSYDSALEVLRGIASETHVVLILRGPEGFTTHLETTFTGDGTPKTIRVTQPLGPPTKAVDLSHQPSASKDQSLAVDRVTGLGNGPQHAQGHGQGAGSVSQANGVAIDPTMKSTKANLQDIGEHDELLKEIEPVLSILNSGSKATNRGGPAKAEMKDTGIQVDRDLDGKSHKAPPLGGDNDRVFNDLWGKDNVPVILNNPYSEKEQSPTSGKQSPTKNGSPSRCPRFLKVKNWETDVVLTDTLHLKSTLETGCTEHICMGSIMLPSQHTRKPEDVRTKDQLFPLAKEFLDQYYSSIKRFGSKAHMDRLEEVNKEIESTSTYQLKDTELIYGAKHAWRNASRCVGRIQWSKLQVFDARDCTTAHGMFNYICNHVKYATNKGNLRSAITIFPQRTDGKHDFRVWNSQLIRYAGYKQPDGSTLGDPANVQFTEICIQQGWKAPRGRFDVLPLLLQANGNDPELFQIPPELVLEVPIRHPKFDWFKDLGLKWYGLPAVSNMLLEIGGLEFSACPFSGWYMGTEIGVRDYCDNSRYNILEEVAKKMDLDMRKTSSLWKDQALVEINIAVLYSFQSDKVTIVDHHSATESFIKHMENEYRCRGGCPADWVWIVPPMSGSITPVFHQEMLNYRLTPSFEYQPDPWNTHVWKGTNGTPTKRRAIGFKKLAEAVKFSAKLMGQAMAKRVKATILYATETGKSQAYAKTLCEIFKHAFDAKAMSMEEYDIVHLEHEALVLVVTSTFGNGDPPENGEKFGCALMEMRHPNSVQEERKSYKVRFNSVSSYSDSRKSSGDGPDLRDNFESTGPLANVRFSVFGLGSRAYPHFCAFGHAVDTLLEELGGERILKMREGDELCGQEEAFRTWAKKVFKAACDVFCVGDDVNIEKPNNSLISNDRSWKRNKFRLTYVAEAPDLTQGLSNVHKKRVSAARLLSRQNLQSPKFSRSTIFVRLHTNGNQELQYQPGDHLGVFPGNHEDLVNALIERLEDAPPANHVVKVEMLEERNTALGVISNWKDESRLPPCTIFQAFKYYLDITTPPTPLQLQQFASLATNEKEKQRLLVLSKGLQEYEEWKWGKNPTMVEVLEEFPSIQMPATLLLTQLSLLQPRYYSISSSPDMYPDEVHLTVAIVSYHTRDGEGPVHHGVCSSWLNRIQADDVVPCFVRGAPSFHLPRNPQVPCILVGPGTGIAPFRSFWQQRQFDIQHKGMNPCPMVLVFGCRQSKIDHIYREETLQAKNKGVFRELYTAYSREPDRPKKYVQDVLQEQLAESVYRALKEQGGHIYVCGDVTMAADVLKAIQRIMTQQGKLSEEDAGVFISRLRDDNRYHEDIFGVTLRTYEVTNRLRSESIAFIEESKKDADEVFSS
Conditions: not given
In the case of `N=C(N)N/N=C/c1c(Cl)cccc1Cl` [GUANABENZ], the IC50 entry is given as “Not Active”.

As to `NC[C@H]1O[C@H](O[C@H]2[C@H](O)[C@@H](O[C@H]3O[C@H](CO)[C@@H](O)[C@H](N)[C@H]3O)[C@H](N)C[C@@H]2N)[C@H](O)[C@@H](O)[C@@H]1O` [KANAMYCIN], the IC50 result is “Not Active”.

Take `CC(C(=O)O)c1ccc(CC2CCCC2=O)cc1` (stereo not given) [LOXOPROFEN]: the IC50 entry was “Not Active”.

`CC(=O)O[C@]1(C(C)=O)CC[C@H]2[C@@H]3C=C(C)C4=CC(=O)CC[C@]4(C)[C@H]3CC[C@@]21C` [MEGESTROL ACETATE]: the IC50 result is given as “Not Active”.

Take `COc1ccccc1OCC(O)COC(N)=O` (stereo not given) [METHOCARBAMOL]: the IC50 entry is listed as “Not Active”.

On to `CN(Cc1cnc2nc(N)nc(N)c2n1)c1ccc(C(=O)N[C@@H](CCC(=O)O)C(=O)O)cc1` [METHOTREXATE], for which the IC50 result is listed as “Not Active”.

For `COC(=O)c1ccccc1O` [METHYL SALICYLATE], the IC50 entry is recorded as “Not Active”.

The target in another data set is Mitogen-activated protein kinase 3 (Homo sapiens, UniProt P27361). Nature of the data set: DRUGMATRIX: Protein Serine/Threonine Kinase, ERK1 enzyme inhibition (substrate: Myelin Basic Protein). The settings on record: Not Active = under 50% inhibition at 10 µM. The arrangement: species or system Escherichia coli.
Sequence of Mitogen-activated protein kinase 3 (P27361 whole entry): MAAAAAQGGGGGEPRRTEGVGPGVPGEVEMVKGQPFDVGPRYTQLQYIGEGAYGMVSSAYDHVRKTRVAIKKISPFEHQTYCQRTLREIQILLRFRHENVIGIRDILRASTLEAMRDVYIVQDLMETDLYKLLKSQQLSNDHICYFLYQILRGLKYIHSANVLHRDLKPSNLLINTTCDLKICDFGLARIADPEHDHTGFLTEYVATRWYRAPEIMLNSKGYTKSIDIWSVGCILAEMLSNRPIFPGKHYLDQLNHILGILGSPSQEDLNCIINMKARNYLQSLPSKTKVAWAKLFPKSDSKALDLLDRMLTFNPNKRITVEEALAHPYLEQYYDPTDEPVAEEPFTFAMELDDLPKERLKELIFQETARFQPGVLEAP
Consider `N=C(N)N/N=C/c1c(Cl)cccc1Cl` [GUANABENZ], for which the IC50 entry is on record as “Not Active”.

For the molecule `NC[C@H]1O[C@H](O[C@H]2[C@H](O)[C@@H](O[C@H]3O[C@H](CO)[C@@H](O)[C@H](N)[C@H]3O)[C@H](N)C[C@@H]2N)[C@H](O)[C@@H](O)[C@@H]1O` [KANAMYCIN], the IC50 result is on record as “Not Active”.

As for `CC(C(=O)O)c1ccc(CC2CCCC2=O)cc1` (stereo not given) [LOXOPROFEN], the IC50 result was “Not Active”.

`CC(=O)O[C@]1(C(C)=O)CC[C@H]2[C@@H]3C=C(C)C4=CC(=O)CC[C@]4(C)[C@H]3CC[C@@]21C` [MEGESTROL ACETATE]: the IC50 result is “Not Active”.

On to `COc1ccccc1OCC(O)COC(N)=O` (stereo not given) [METHOCARBAMOL], for which the IC50 result is given as “Not Active”.

Take `CN(Cc1cnc2nc(N)nc(N)c2n1)c1ccc(C(=O)N[C@@H](CCC(=O)O)C(=O)O)cc1` [METHOTREXATE]: the IC50 entry is listed as “Not Active”.

Consider `COC(=O)c1ccccc1O` [METHYL SALICYLATE], for which the IC50 entry is on record as “Not Active”.

The next data set has as its target Cytochrome P450 2C19 (Homo sapiens, UniProt P33261). The following applies: bti-tn-5b1-4. Note: in other assays of this panel Not Active means under 50% inhibition at 10 µM.
As for `N=C(N)N/N=C/c1c(Cl)cccc1Cl` [GUANABENZ], the IC50 entry is reported as “Not Active” and the Ki entry is given as “Not Active”.

On to `NC[C@H]1O[C@H](O[C@H]2[C@H](O)[C@@H](O[C@H]3O[C@H](CO)[C@@H](O)[C@H](N)[C@H]3O)[C@H](N)C[C@@H]2N)[C@H](O)[C@@H](O)[C@@H]1O` [KANAMYCIN], for which the IC50 result was “Not Active” and the Ki entry is “Not Active”.

With `CC(C(=O)O)c1ccc(CC2CCCC2=O)cc1` (stereo not given) [LOXOPROFEN], the IC50 result is recorded as “Not Active” and the Ki entry is listed as “Not Active”.

As to `CC(=O)O[C@]1(C(C)=O)CC[C@H]2[C@@H]3C=C(C)C4=CC(=O)CC[C@]4(C)[C@H]3CC[C@@]21C` [MEGESTROL ACETATE], the IC50 entry is “Not Active” and the Ki entry is “Not Active”.

Turning to `COc1ccccc1OCC(O)COC(N)=O` (stereo not given) [METHOCARBAMOL], the IC50 entry is listed as “Not Active” and the Ki result is given as “Not Active”.

For `CN(Cc1cnc2nc(N)nc(N)c2n1)c1ccc(C(=O)N[C@@H](CCC(=O)O)C(=O)O)cc1` [METHOTREXATE], the IC50 entry is recorded as “Not Active” and the Ki entry was “Not Active”.

Turning to `COC(=O)c1ccccc1O` [METHYL SALICYLATE], the IC50 result is “Not Active” and the Ki entry is “Not Active”.

The next data set concerns the target T2, Estrogen receptor (Homo sapiens, UniProt P03372). Note: in other assays of this panel Not Active means under 50% inhibition at 10 µM.
T2 sequence (P03372 whole entry): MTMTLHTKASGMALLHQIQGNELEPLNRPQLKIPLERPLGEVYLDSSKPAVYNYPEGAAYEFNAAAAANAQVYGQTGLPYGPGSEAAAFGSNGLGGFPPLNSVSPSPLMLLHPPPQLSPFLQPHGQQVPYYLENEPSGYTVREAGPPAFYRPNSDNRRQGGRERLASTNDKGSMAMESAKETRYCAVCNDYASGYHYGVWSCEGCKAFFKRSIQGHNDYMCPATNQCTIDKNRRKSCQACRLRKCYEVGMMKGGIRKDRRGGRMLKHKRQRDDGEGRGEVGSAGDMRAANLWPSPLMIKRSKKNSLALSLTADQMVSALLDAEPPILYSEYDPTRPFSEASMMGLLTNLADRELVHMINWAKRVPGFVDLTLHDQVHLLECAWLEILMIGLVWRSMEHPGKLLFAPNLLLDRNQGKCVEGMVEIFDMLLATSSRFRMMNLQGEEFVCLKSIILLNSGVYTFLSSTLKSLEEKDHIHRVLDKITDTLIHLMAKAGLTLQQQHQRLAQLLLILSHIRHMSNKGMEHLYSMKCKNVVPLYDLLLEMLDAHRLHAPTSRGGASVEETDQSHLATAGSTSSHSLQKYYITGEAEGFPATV
The settings on record: sf9.
For `N=C(N)N/N=C/c1c(Cl)cccc1Cl` [GUANABENZ], the IC50 entry was “Not Active”.

For `NC[C@H]1O[C@H](O[C@H]2[C@H](O)[C@@H](O[C@H]3O[C@H](CO)[C@@H](O)[C@H](N)[C@H]3O)[C@H](N)C[C@@H]2N)[C@H](O)[C@@H](O)[C@@H]1O` [KANAMYCIN], the IC50 result is given as “Not Active”.

On to `CC(C(=O)O)c1ccc(CC2CCCC2=O)cc1` (stereo not given) [LOXOPROFEN], for which the IC50 entry was “Not Active”.

Turning to `CC(=O)O[C@]1(C(C)=O)CC[C@H]2[C@@H]3C=C(C)C4=CC(=O)CC[C@]4(C)[C@H]3CC[C@@]21C` [MEGESTROL ACETATE], the IC50 entry is recorded as “Not Active”.

As to `COc1ccccc1OCC(O)COC(N)=O` (stereo not given) [METHOCARBAMOL], the IC50 entry is reported as “Not Active”.

Take `CN(Cc1cnc2nc(N)nc(N)c2n1)c1ccc(C(=O)N[C@@H](CCC(=O)O)C(=O)O)cc1` [METHOTREXATE]: the IC50 entry was “Not Active”.

In the case of `COC(=O)c1ccccc1O` [METHYL SALICYLATE], the IC50 entry was “Not Active”.
